EP0714884A1, “A method for the production of a basic amino acid” (Ajinomoto Co., Inc., priority 1994, dated 1996)

Test: Filterability evaluation: time period required for filtration through a membrane filter
Format: physicochemical
Conditions: for filterability: neutral to acidic pH, result in words; for Filtration period of aqueous solution: L-arginine 5g/dl, 30°C, 1.4 ℓ, 2 x 10⁵ Pa, Millipore 0.22 µmGS membrane filter
Description: The dried purified crystals were obtained by the three method described above were filtered under the condition shown below to compare the filterability. The pH was adjusted with 2N aqueous solution of HCl, and the filterability was evaluated by determining the time period required for the filtration.
The dried purified crystals obtained by the method described above were filtered under conditions similar to those in Example 1 to evaluate the filterability.

For `N=C(N)NCCC[C@H](N)C(=O)O` [Conventional method, L-arginine], which filterability is on record?
Its filterability is “extremely poor filterability”.

What about the “Filtration period of aqueous solution” value (pH 3) of the same molecule?
Its value is “Occlusion”.

What about the “Filtration period of aqueous solution” value (pH 5) of the same molecule?
The value was 8000 s.

And the “Filtration period of aqueous solution” value (pH 7)?
Its value is 1510 s.

What about the “Filtration period of aqueous solution” value (pH 11) of the same molecule?
The value was 1010 s.

Which results are given for `N=C(N)NCCC[C@H](N)C(=O)O` [Solution of purified crystals by LR-O method] [L-arginine]?
Filtration period of aqueous solution (pH 3): 914 s; Filtration period of aqueous solution (pH 5): 920 s; Filtration period of aqueous solution (pH 7): 918 s; Filtration period of aqueous solution (pH 11): 921 s

Which filterability does the source give for `N=C(N)NCCC[C@H](N)C(=O)O` [LR-O method, L-arginine] here?
The filterability was “no deterioration of the filterability”.

And the “Filtration period of aqueous solution” value (pH 3)?
Its value is 920 s.

What about the “Filtration period of aqueous solution” value (pH 5) of the same molecule?
Its value is 880 s.

And the “Filtration period of aqueous solution” value (pH 7)?
The value was 910 s.

What about the “Filtration period of aqueous solution” value (pH 11) of the same molecule?
The value was 930 s.

Which filterability does the source give for `N=C(N)NCCC[C@H](N)C(=O)O` [UF method, L-arginine] here?
The filterability was “extremely poor filterability”.

What about the “Filtration period of aqueous solution” value (pH 3) of the same molecule?
Its value is “Occlusion”.

And the “Filtration period of aqueous solution” value (pH 5)?
Its value is 2640 s.

And the “Filtration period of aqueous solution” value (pH 7)?
Its value is 1400 s.

What about the “Filtration period of aqueous solution” value (pH 11) of the same molecule?
Its value is 850 s.
